This is an account of results in patent US20060117411A1, “Enhancing plant pathogen resistance via increasing BiP levels” (priority 1998, published 2006).

One test has as its system PR1 mRNA. Description: SA spraying of tobacco plants, Northern blot of PR1 mRNA. It counts as in vivo, Nicotiana tabacum. As for the experimental part:
It has been shown that SA is involved in the induction of PR genes (reviewed by Malamy and Klessig, 1992) and that this signal molecule also induces the expression of ER chaperones (Denecke et al, 1995). We wanted to investigate whether ER chaperone induction is a consequence of the high synthesis rates of PR genes and used BiP as a model system. Tobacco plants were sprayed with SA (5 mM) and the exact timing of the SA-mediated induction of PR-gene PRI was compared to that of BiP. PR1 was chosen as a representative marker for SA-mediated induction of PR genes as its response to SA is faster and more pronounced than that of acidic chitinase, basic chitinase and basic β-1.3 glucanase (Vidal et al, 1997). […] In contrast SA-induced transcription of PR1 starts only after 6-8 hours and continues to accumulate upto 16 hours after treatment. At this time-point, BiP mRNA levels start to decrease again. We have shown previously that PR1 continuous to accumulate until 48 hours after SA treatment using the same experimental system (Vidal et al, 1997). […] BiP protein levels were also shown to increase (FIG. 7B), with a significant increase noticeable after 4-6 hours of induction.
To investigate further similarities and differences in the SA-mediated induction of BiP and PR genes, we tested if the presence of light is required for the induction. The rationale for this experiment was derived from the observation that SA inhibits catalase, resulting in an increase of active oxygen species in the plant, which would then induce PR genes such as PR1 (Chen et al, 1993). […]
We have shown that the SA-induced expression of PR1 is inhibited in a concentration dependent fashion by the presence of Erwinia carotovora culture filtrate containing cell wall-degrading enzymes (Vidal et al, 1997). […] Total RNA was extracted and the expression of chaperones was determined in relation to PR1. […]

Test [1] deals with α-amylase synthesis in tobacco protoplasts. Kind of test: Transient expression in tobacco protoplasts (pNL200), α-amylase activity. It counts as cell-based, Nicotiana tabacum. As to conditions: tunicamycin 20 μg/mL, 20 hr. An excerpt:
We have established a model system based on the comparison of protein biosynthesis in the cytosol and on the rough ER using transient expression. A plasmid was constructed (pNL200, FIG. 12A) containing two genes, one encoding the secreted barley α-amylase (Rogers, 1985) and the other encoding the cytosolic marker β-glucuronidase (GUS; Jefferson et al., 1987). α-Amylase was used to measure secretory protein biosynthesis, and GUS was used to control for transfection efficiency and overall cell viability. We compared cells under normal culture conditions with cells subjected to ER stress by treatment with tunicamycin. […] Since α-amylase is not glycosylated, tunicamycin should not have a direct effect on this protein. The tunicamycin effect is protein-specific and not dependent on the promoter used. […]
Tobacco leaf protoplasts (from transformed or untransformed plants) were prepared, and electroporation experiments were performed as previously described (Denecke and Vitale, 1995), with minor modifications to the electroporation conditions. […] After 24 or 48 hr, the protoplasts were analysed by enzymatic assay or by protein gel blotting. […]
α-Amylase activity was measured with a kit (Megazyme, Australia). […] The absorbance was measured at a wavelength of 405 nm, with a microtiter plate reader against a blank containing stop buffer alone. […]

Where only a bound is given, the exact number is not on record here.

Regarding `O=C(O)c1ccccc1O` [SA, Salicylic Acid], the “PR1 induction during SA-treatment in the absence of light” value with PR1 mRNA (SA 5 mM, 6 and 16 hours, dark vs light) was “almost completely abolished”. In the test on PR1 mRNA (sprayed with SA 5 mM), the “time after which SA-induced transcription of PR1 starts” value lay within 6 to 8 h and the “time up to which PR1 continues to accumulate” value is no more than 16 h.

tunicamycin: the “total α-amylase activity in the cell suspension” value in test [1] is “greatly reduced”.
